This is an account of results in PMC7314547, “Echinoderms provide missing link in the evolution of PrRP/sNPF-type neuropeptide signalling” (eLife, 2020).

“Also recorded” adds a separate entry of the source. Where no end group is shown, it is not given here.

For assay [1], the system named is A. rubens sNPF/PrRP-type receptor Ar-sNPF/PrRPR. The assay can be described thus: Receptor activation: luminescence of CHO-K1 cells expressing Ar-sNPF/PrRPR, Gα16 and apoaequorin-GFP fusion (G5A) (CHO-Ar-sNPF/PrRPR). The format is cell-based, Asterias rubens. To be noted: for luminescence response / receptor activation (in words): at least three independent experiments in triplicate. The protocol: A cDNA encoding Ar-sNPF/PrRPR was cloned and sequenced (Figure 3—figure supplement 1) and its sequence has been deposited in GenBank under accession number MH807444.1. […] The cloned receptor was then co-expressed with Gα16 in CHO-K1 cells expressing apoaequorin to produce the cell system CHO-Ar-sNPF/PrRPR. Synthetic ArPrRP (p[…]-NH2) was tested as a candidate ligand for Ar-sNPF/PrRPR at concentrations ranging from 10^−14 M to 10^−5 M, comparing with cells incubated in assay media without the addition of the peptide. […] Because ArPrRP contains a potential dibasic cleavage site (see underlined arginine residues in its sequence: p[…]-NH2), we hypothesised that the C-terminal pentapeptide of ArPrRP (LNPRFamide) may also be generated from ArPrRPP in vivo. Therefore, we also tested synthetic LNPRFamide as a candidate ligand for Ar-sNPF/PrRPR. […] Therefore, we conclude that the 22-residue amidated peptide ArPrRP is the natural ligand for Ar-sNPF/PrRPR in A. rubens.
Figure 5. A. rubens PrRP-like peptide ArPrRP acts as a ligand for the A. rubens sNPF/PrRP-type receptor Ar-sNPF/PrRPR. (A) The A. rubens PrRP-like peptide ArPrRP (10^−5 M; red bar) triggers luminescence in CHO-K1 cells expressing the A. rubens PrRP/sNPF-type receptor Ar-sNPF/PrRPR, the promiscuous G-protein Gα16 and the calcium-sensitive luminescent GFP-apoaequorin fusion protein G5A. For comparison, the background luminescence of cells that were not exposed to ArPrRP is shown (basal media; grey bar). Mean values (± S.E.M) were determined from three independent experiments performed in triplicate (B). Graph showing the selectivity of ArPrRP as a ligand for Ar-sNPF/PrRPR. […] Ar-sNPF/PrRPR is not activated by a C-terminal pentapeptide fragment of ArPrRP (LNPRFamide) or by the A. rubens luqin-type peptide ArLQ. Each point represents mean values (± S.E.M) from at least three independent experiments done in triplicate. The raw data for the experiments shown in Figure 5 and in Figure 5—figure supplement 2 can be found in Figure 5—source data 1. Figure 5—source data 1. Data for the graphs shown in Figure 5 and Figure 5—figure supplement 2. Figure 5—figure supplement 1. Predicted topology of Ar-sNPF/PrRPR. Seven predicted transmembrane domains are numbered successively in blue and two predicted N-glycosylation sites are shown with green boxes. This figure was generated using Protter (http://wlab.ethz.ch/protter/start/). [drawing 6] Figure 5—figure supplement 2. […] Each point represents mean values (± S.E.M.) from at least three independent experiments, with each experiment performed in triplicate. [drawing 7]
To enable the pharmacological characterisation of a candidate receptor for the A. rubens NPY/NPF/PrRP-like peptide, a cDNA encoding this receptor was cloned into the eukaryotic expression vector pcDNA 3.1(+) (Invitrogen; Cat. No. V790-20). To facilitate expression of the cloned receptor, the forward primer included a partial Kozak consensus sequence (ACC) and a sequence corresponding to the first 15 bases of the open reading frame of contig 1120879 (ACCATGCAGATGACAACC) and the reverse primer consisted of a stop codon and a sequence reverse complementary to the 3’ region of the open reading frame of contig 1120879 ([…]). PCR was performed using the forward primer and reverse primers, A. rubens radial nerve cord cDNA and Q5 polymerase (NEB; Cat. No. M0491S). […] Successful ligation and the direction of the insert was determined by restriction enzyme digestion and sequencing (TubeSeq service; Eurofins Genomics). […]

In another assay the test system is NPR-11. To be noted: ref Chalasani et al., 2010; cited from earlier work. The source says:
The nematode C. elegans is a powerful model system for functional characterisation of neuropeptide signalling systems ([Frooninckx et al., 2012]). However, NPY/NPF-type signalling has thus far only been partially characterised in this species. […] However, this peptide shares little sequence similarity with NPY/NPF-typ ...

For assay [2], the system named is CHO-K1 cells transfected with an empty pcDNA 3.1(+) vector. Nature of the assay: Control: luminescence of CHO-K1 (G5A) cells transfected with empty pcDNA 3.1(+) vector. The format is cell-based, Cricetulus griseus. To be noted: cells transfected with vector alone; at least three independent experiments in triplicate. The protocol: A cDNA encoding Ar-sNPF/PrRPR was cloned and sequenced (Figure 3—figure supplement 1) and its sequence has been deposited in GenBank under accession number MH807444.1. […] The cloned receptor was then co-expressed with Gα16 in CHO-K1 cells expressing apoaequorin to produce the cell system CHO-Ar-sNPF/PrRPR. Synthetic ArPrRP (p[…]-NH2) was tested as a candidate ligand for Ar-sNPF/PrRPR at concentrations ranging from 10^−14 M to 10^−5 M, comparing with cells incubated in assay media without the addition of the peptide. […] Because ArPrRP contains a potential dibasic cleavage site (see underlined arginine residues in its sequence: p[…]-NH2), we hypothesised that the C-terminal pentapeptide of ArPrRP (LNPRFamide) may also be generated from ArPrRPP in vivo. Therefore, we also tested synthetic LNPRFamide as a candidate ligand for Ar-sNPF/PrRPR. […]
Figure 5. […] (A) The A. rubens PrRP-like peptide ArPrRP (10^−5 M; red bar) triggers luminescence in CHO-K1 cells expressing the A. rubens PrRP/sNPF-type receptor Ar-sNPF/PrRPR, the promiscuous G-protein Gα16 and the calcium-sensitive luminescent GFP-apoaequorin fusion protein G5A. For comparison, the background luminescence of cells that were not exposed to ArPrRP is shown (basal media; grey bar). Mean values (± S.E.M) were determined from three independent experiments performed in triplicate (B). […]

Take “LNPRFamide [C-terminal pentapeptide of ArPrRP]”: the “luminescence response / receptor activation (in words)” value in assay [1] is given as “did not induce luminescence responses; also recorded: not activated”.
Regarding MDANAFRMSF-NH2, in the assay with NPR-11, the “receptor activation (in words)” value is “only showed activation at peptide concentrations of 10 and 30 µM”.
As to “pQDRSKAMQAERTGQLRRLNPRF-NH2 [ArPrRP, 22-residue amidated starfish PrRP-type neuropeptide, custom synthesised]”, in assay [1], the “ligand potency (in words)” value is on record as “potent ligand” and the “luminescence response / receptor activation (in words)” value is reported as “induced dose-dependent luminescence; also recorded: causes dose-dependent luminescence”. The “luminescence response relative to background (basal media)” value in assay [1] (10^-5 M, mean of three independent experiments in triplicate) was “approximately five times the background luminescence”. For the same substance, the EC50 in assay [1] (10^-14 M to 10^-5 M in DMEM/F12, luminescence integrated over 30 s, four-parameter curve, at least three independent transfections in triplicate, read-out: EC50 (half-maximal response concentration)) was 0.15 nM. Besides, the “luminescence response (in words)” value in assay [2] is listed as “no response; also recorded: does not trigger luminescence”.
